# Experimental data as given in patent US7135299B2, “Catalase-inactivating compounds and the use thereof” (priority 2001, dated 2006).
# What was measured:
# [1] = target: T1, catalase from ox liver (as active endogenous catalase) (Bos taurus, UniProt P00432); experiment: Catalase inactivation test: oxygen evolution from hydrogen peroxide measured as pressure in a closed tube, active endogenous catalase; type: biochemical; conditions: 35 units of catalase from ox liver in 1 ml sample, 7 ml solution of the title compound, 0.23 g hydrogen peroxide 30%, 15 minutes at room temperature
# T1 construct: catalase from ox liver (as active endogenous catalase); from tissue; host or cells: ox liver
# T1 sequence (P00432 2-527 limits assumed): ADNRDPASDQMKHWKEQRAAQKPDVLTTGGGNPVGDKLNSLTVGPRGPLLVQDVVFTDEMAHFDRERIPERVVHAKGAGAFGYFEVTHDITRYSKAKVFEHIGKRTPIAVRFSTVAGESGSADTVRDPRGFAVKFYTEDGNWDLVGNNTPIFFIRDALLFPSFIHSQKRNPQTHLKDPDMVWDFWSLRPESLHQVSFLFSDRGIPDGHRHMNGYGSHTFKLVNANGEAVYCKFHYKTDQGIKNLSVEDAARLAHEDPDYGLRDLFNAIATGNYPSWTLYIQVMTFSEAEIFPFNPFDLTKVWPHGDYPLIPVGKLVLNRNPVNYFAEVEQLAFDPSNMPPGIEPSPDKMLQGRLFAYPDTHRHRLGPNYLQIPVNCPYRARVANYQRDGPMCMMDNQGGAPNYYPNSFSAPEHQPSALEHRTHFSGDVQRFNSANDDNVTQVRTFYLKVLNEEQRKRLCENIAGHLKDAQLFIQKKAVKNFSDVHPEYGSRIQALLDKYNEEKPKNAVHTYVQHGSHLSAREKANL
# Text: (§1) The following reagents are provided: • catalase from ox liver (as active endogenous catalase) • catalase from Aspergillus niger (as active intracellular catalase) • catalase from microorganisms^(*) (as active intracellular catalase) • antifoam (RD® from Dow Corning) • hydrogen peroxide (Perhydrol® 30% from Merck) ^(*)various bacteria and/or fungi
# (§2) Each sample contains in each case 35 units of catalase from ox liver or from Aspergillus niger or from microorganisms per ml of distilled water. The 1 ml sample is put in a 15 ml tube (Vacutainer® 16×125 mm from Becton Dickinson), and in each case 7 ml of the aforementioned solution of the title compound are added and mixed therewith (Vortex® Genie 2 mixer from Merck). Then 1 drop of said antifoam is added and mixing is repeated. Thereafter 0.23 g of said hydrogen peroxide is added, and the tube is immediately made gas-tight with a stopper made of chemical-resistant elastic plastic (Viton® from Du Pont de Nemours), briefly (for a few seconds) ventilated with the aid of a hollow needle (Ø1 mm hypodermic needle) piercing the stopper and, immediately thereafter, closed gas-tight again by withdrawing the hollow needle from the stopper. The tube which has been closed gas-tight is left to stand at room temperature for 15 minutes. […] The pressure in the tube is then measured (cf. the description hereinafter of the preferred pressure gage). […]
# [2] = system: catalase from Aspergillus niger / catalase from microorganisms (as active intracellular catalase); experiment: Catalase inactivation test: oxygen evolution from hydrogen peroxide measured as pressure in a closed tube, active intracellular catalase; type: biochemical, Aspergillus niger; various bacteria and/or fungi; conditions: 35 units of catalase from Aspergillus niger or from microorganisms in 1 ml sample, 7 ml solution of the title compound, 0.23 g hydrogen peroxide 30%, 15 minutes at room temperature
# Text: as §1, §2
substance,measurement,setting,value
CH2═CH—COO—SO2—O—C12H25,catalase activity by oxygen evolution (pressure in the tube),[1],the pressure in the tube does not increase
same,catalase activity by oxygen evolution (pressure in the tube),[2],the pressure in the tube increases
